Measured values taken from patent publication US11485719B2, “Water soluble 3-ketocoumarins” (priority 2017, dated 2022).

Columns and labels:
[1] = Reactivity test, water based clear formulation (FT-IR photopolymerization); conditions: 3% wt photoinitiator + 3% wt triethanolamine in UCECOAT7200/Ebecryl 350 99:1
Description: The photopolymerizable compositions for the test were prepared dissolving the photoinitiators and the co-initiator, triethanolamine, at a concentration of 3% by weight (wt) each in a mixture 99:1 wt of UCECOAT7200 and Ebecryl 350 (Allnex). The reference compound Omnirad 819 DW (45% wt in water) (COMP-1) was dissolved at a concentration of 6.6% by weight to have the same amount of active content.
The photopolymerizable compositions placed in the sample lodgment of a FT-IR (FT-IR 430-Jasco), were exposed to two different sources: • 1) a LED source (400 nm) located at a distance of 25 mm from the sample and at an angle of 30°. (Table 1) • 2) A Mercury lamp (160 W) located at a distance of 65 mm from the sample and at an angle of 30°. (Table 2)
IR spectra were acquired at constant time intervals during the photopolymerization and the reduction over the time of the area of the peaks at 1408 and 810 cm^−1 assigned to the acrylic double bonds was determined using the IR software. This allows quantifying the degree of polymerization and therefore the efficiency of the photoinitiator.
The results at 400 nm, expressed as % of polymerization over the time, are reported in Table 1 and the results with the Mercury lamp are reported in Table 2.

[2] = Reactivity test, water based black inkjet ink (FT-IR photopolymerization); conditions: 5.0% wt photoinitiator + 5.0% wt triethanolamine in water based black ink
Description: The photopolymerizable compositions for the test were prepared by dissolving the photoinitiators and the co-initiator triethanolamine at a concentration of 5.0% wt each in a water based black ink for ink-jet printing. The reference compound Omnirad 819 DW (45% wt in water) (COMP-1) was dissolved at a concentration of 11% by weight to have the same amount of active content.
The photopolymerizable compositions placed in the sample lodgment of a FT-IR (FT-IR 430-Jasco), were exposed to two different sources: • 1) a LED source (400 nm) located at a distance of 25 mm from the sample and at an angle of 30°. (Table 3) • 2) A Mercury lamp (160 W) located at a distance of 65 mm from the sample and at an angle of 30°. (Table 4)
IR spectra were acquired at constant time intervals during the photopolymerization and the reduction over the time of the area of the peaks at 1408 cm^−1 and 810 cm^−1 assigned to the acrylic double bonds was determined using the IR software. This allows quantifying the degree of polymerization and therefore the efficiency of the photoinitiator.
The results at 400 nm, expressed as % of polymerization over the time, are reported in Table 3 and the results with the Mercury lamp are reported in Table 4.

SMILES | % of polymerization over the time ([1]; LED source 400 nm, 0.5 sec) [%] | % of polymerization over the time ([1]; LED source 400 nm, 2 sec) [%] | % of polymerization over the time ([1]; Mercury lamp 160 W, 0.2 sec) [%] | % of polymerization over the time ([1]; Mercury lamp 160 W, 1 sec) [%] | % of polymerization over the time ([2]; LED source 400 nm, 0.5 sec) [%] | % of polymerization over the time ([2]; LED source 400 nm, 2 sec) [%] | % of polymerization over the time ([2]; Mercury lamp 160 W, 0.2 sec) [%] | % of polymerization over the time ([2]; Mercury lamp 160 W, 1 sec) [%]
COc1cc(OC)c2cc(C(=O)c3ccc(CCC(=O)O)cc3)c(=O)oc2c1 [Example 8] | 7 | 15 | 9 | 16 |  |  |  | 
COc1cc(OC)c2cc(C(=O)c3ccc(CC[N+]4(C)CCCCC4)cc3)c(=O)oc2c1.[Cl-] [Example 14] | 23 | 27 | 15 | 23 | 38 | 62 | 67 | 89
